Data as given in ChEMBL document CHEMBL1201862, “PubChem BioAssay data set” (2004).
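How tested: cells in 96-well plates exposed to compound for 48 hours at five concentrations. GI50 = concentration required for 50% inhibition of growth.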 Activity calls are given as the source filed them. No stated cut-off is given here; in the data, active = GI50 up to about 1.1 µM and inactive = higher.

Legend:
Assay in all cases: growth of human tumour cells (NCI), 48 h
786-0 = system: 786-0
A549 = system: A549
ACHN = system: ACHN
BT-549 = system: BT-549
CAKI-1 = system: CAKI-1
CCRF-CEM = system: CCRF-CEM
COLO 205 = system: COLO 205
DU-145 = system: DU-145
EKVX = system: EKVX
HCT-116 = system: HCT-116
HCT-15 = system: HCT-15
HL-60 = system: HL-60
HOP-62 = system: HOP-62
HOP-92 = system: HOP-92
HT-29 = system: HT-29
Hs-578T = system: Hs-578T
IGROV-1 = system: IGROV-1
K562 = system: K562
KM12 = system: KM12
LOX IMVI = system: LOX IMVI
MCF7 = system: MCF7
MDA-MB-231 = system: MDA-MB-231
MDA-MB-435 = system: MDA-MB-435
MDA-N = system: MDA-N
MOLT-4 = system: MOLT-4
Malme-3M = system: Malme-3M
NCI-H226 = system: NCI-H226
NCI-H23 = system: NCI-H23
NCI-H460 = system: NCI-H460
NCI-H522 = system: NCI-H522
NCI/ADR-RES = system: NCI/ADR-RES
OVCAR-3 = system: OVCAR-3
OVCAR-4 = system: OVCAR-4
OVCAR-5 = system: OVCAR-5
OVCAR-8 = system: OVCAR-8
PC-3 = system: PC-3
RPMI-8226 = system: RPMI-8226
RXF 393 = system: RXF 393
SF-268 = system: SF-268
SF-295 = system: SF-295
SF-539 = system: SF-539
SK-MEL-2 = system: SK-MEL-2
SK-MEL-5 = system: SK-MEL-5
SK-OV-3 = system: SK-OV-3
SN12C = system: SN12C
SNB-19 = system: SNB-19
SNB-75 = system: SNB-75
SR = system: SR
SW-620 = system: SW-620
T47D = system: T47D
TK-10 = system: TK-10
U-251 = system: U-251
UACC-257 = system: UACC-257
UACC-62 = system: UACC-62
UO-31 = system: UO-31
A498 = system: A498
M14 = system: M14
SK-MEL-28 = system: SK-MEL-28
HCC 2998 = system: HCC 2998

Measured: GI50

NNC(=O)CC(=O)Nc1ccc(C(=O)O)cc1
inactive: 786-0 > 100 µM | A549 > 100 µM | ACHN > 100 µM | BT-549 > 100 µM | CAKI-1 > 100 µM | CCRF-CEM > 100 µM | COLO 205 > 100 µM | DU-145 > 100 µM | EKVX > 100 µM | HCT-116 > 100 µM | HL-60 > 100 µM | HOP-62 > 100 µM | HOP-92 > 100 µM | HT-29 > 100 µM | Hs-578T > 100 µM | IGROV-1 > 100 µM | K562 > 100 µM | KM12 > 100 µM | LOX IMVI > 100 µM | MCF7 > 100 µM | MDA-MB-231 > 100 µM | MDA-MB-435 > 100 µM | MDA-N > 100 µM | MOLT-4 > 100 µM | Malme-3M > 100 µM | NCI-H226 > 100 µM | NCI-H23 > 100 µM | NCI-H460 > 100 µM | NCI-H522 > 100 µM | NCI/ADR-RES > 100 µM | OVCAR-3 > 100 µM | OVCAR-4 > 100 µM | OVCAR-5 > 100 µM | OVCAR-8 > 100 µM | PC-3 > 100 µM | RPMI-8226 > 100 µM | RXF 393 > 100 µM | SF-268 > 100 µM | SF-295 > 100 µM | SF-539 > 100 µM | SK-MEL-2 > 100 µM | SK-MEL-5 > 100 µM | SK-OV-3 > 100 µM | SN12C > 100 µM | SNB-19 > 100 µM | SNB-75 > 100 µM | SR > 100 µM | SW-620 > 100 µM | T47D > 100 µM | TK-10 > 100 µM | U-251 > 100 µM | UACC-257 > 100 µM | UACC-62 > 100 µM | UO-31 > 100 µM
> 100 µM: HCT-15

Nc1nc(N)c(Cn2ccnc2)c(O)n1
inactive: 786-0 > 100 µM | A498 > 100 µM | A549 > 100 µM | ACHN > 100 µM | BT-549 > 100 µM | CAKI-1 > 100 µM | COLO 205 > 100 µM | DU-145 > 100 µM | EKVX > 100 µM | HCT-116 > 100 µM | HOP-62 > 100 µM | HOP-92 > 100 µM | HT-29 > 100 µM | Hs-578T > 100 µM | IGROV-1 > 100 µM | KM12 > 100 µM | LOX IMVI > 100 µM | M14 > 100 µM | MCF7 > 100 µM | MDA-MB-231 > 100 µM | MDA-MB-435 > 100 µM | MDA-N > 100 µM | Malme-3M > 100 µM | NCI-H226 > 100 µM | NCI-H23 > 100 µM | NCI-H460 > 100 µM | NCI-H522 > 100 µM | NCI/ADR-RES > 100 µM | OVCAR-3 > 100 µM | OVCAR-4 > 100 µM | OVCAR-5 > 100 µM | OVCAR-8 > 100 µM | PC-3 > 100 µM | RPMI-8226 > 100 µM | RXF 393 > 100 µM | SF-268 > 100 µM | SF-295 > 100 µM | SF-539 > 100 µM | SK-MEL-2 > 100 µM | SK-MEL-5 > 100 µM | SK-OV-3 > 100 µM | SN12C 5.15 µM | SNB-19 > 100 µM | SNB-75 > 100 µM | SR > 100 µM | T47D > 100 µM | TK-10 > 100 µM | U-251 > 100 µM | UACC-257 > 100 µM | UACC-62 > 100 µM | UO-31 > 100 µM
> 100 µM: HCT-15
active: K562 0.049 µM

CCCCSCc1nc2nc(Cl)c(Cl)nc2[nH]1
inactive: 786-0 25.6 µM | A498 21.8 µM | A549 28.8 µM | ACHN 23.9 µM | BT-549 27.1 µM | CAKI-1 23.7 µM | CCRF-CEM 11.3 µM | COLO 205 21.3 µM | DU-145 32.5 µM | EKVX 33.3 µM | HCT-116 19.5 µM | HOP-62 16.1 µM | HOP-92 24.5 µM | HT-29 30.8 µM | Hs-578T 35.6 µM | IGROV-1 33.1 µM | K562 24 µM | KM12 29.8 µM | LOX IMVI 21.7 µM | M14 23.8 µM | MCF7 23.6 µM | MDA-MB-231 24.6 µM | MDA-MB-435 33.5 µM | MDA-N 25.1 µM | MOLT-4 19.5 µM | Malme-3M 20.3 µM | NCI-H226 33.7 µM | NCI-H23 16.8 µM | NCI-H460 20.6 µM | NCI-H522 17.8 µM | NCI/ADR-RES 27 µM | OVCAR-3 12.4 µM | OVCAR-4 29.5 µM | OVCAR-5 30.9 µM | OVCAR-8 34.9 µM | PC-3 31.6 µM | RPMI-8226 12.9 µM | RXF 393 19.4 µM | SF-268 35.6 µM | SF-295 14.5 µM | SF-539 50.2 µM | SK-MEL-28 23 µM | SK-MEL-2 18.7 µM | SK-MEL-5 11.8 µM | SK-OV-3 18.7 µM | SN12C 22.1 µM | SNB-19 35.3 µM | SNB-75 19 µM | SR 22 µM | SW-620 28.5 µM | T47D 15.7 µM | TK-10 27.9 µM | U-251 20.9 µM | UACC-257 16.1 µM | UACC-62 10.5 µM
23.4 µM: HCT-15

c1ccc(-c2ccc(/N=N/N3CCCC3)cc2)cc1
inactive: 786-0 > 100 µM | A498 > 100 µM | ACHN > 100 µM | BT-549 > 100 µM | CAKI-1 > 100 µM | CCRF-CEM > 100 µM | COLO 205 > 100 µM | DU-145 > 100 µM | EKVX > 100 µM | HCT-116 > 100 µM | HOP-62 > 100 µM | HOP-92 > 100 µM | Hs-578T > 100 µM | IGROV-1 > 100 µM | K562 > 100 µM | KM12 > 100 µM | LOX IMVI > 100 µM | M14 > 100 µM | MCF7 > 100 µM | MDA-MB-231 > 100 µM | MDA-MB-435 > 100 µM | MDA-N > 100 µM | MOLT-4 > 100 µM | NCI-H226 > 100 µM | NCI-H23 > 100 µM | NCI-H460 > 100 µM | NCI-H522 > 100 µM | NCI/ADR-RES > 100 µM | OVCAR-3 > 100 µM | OVCAR-4 > 100 µM | OVCAR-5 > 100 µM | OVCAR-8 > 100 µM | PC-3 > 100 µM | RPMI-8226 22.8 µM | RXF 393 > 100 µM | SF-268 > 100 µM | SF-295 > 100 µM | SF-539 > 100 µM | SK-MEL-2 > 100 µM | SK-MEL-5 > 100 µM | SK-OV-3 > 100 µM | SN12C > 100 µM | SNB-19 > 100 µM | SNB-75 > 100 µM | SR 7.11 µM | SW-620 > 100 µM | T47D > 100 µM | TK-10 > 100 µM | U-251 > 100 µM | UACC-257 > 100 µM | UACC-62 > 100 µM | UO-31 > 100 µM
> 100 µM: HCT-15

C=CCOC1=C(OC(C)=O)C(=O)OC1C1COC(C)(C)O1 (stereo not given)
19.5 µM: HCT-15
inactive: 786-0 32.1 µM | A498 > 89.5 µM | A549 > 73.5 µM | ACHN 21.6 µM | BT-549 43.1 µM | CAKI-1 37.7 µM | CCRF-CEM 21.4 µM | COLO 205 29.6 µM | DU-145 > 92.9 µM | EKVX 27.5 µM | HCC 2998 36.4 µM | HCT-116 26.2 µM | HL-60 18.5 µM | HOP-62 29.4 µM | HT-29 30.1 µM | Hs-578T 32.4 µM | IGROV-1 37.9 µM | K562 23.6 µM | KM12 34.2 µM | LOX IMVI 18.1 µM | M14 36 µM | MCF7 28.2 µM | MDA-MB-231 38.4 µM | MDA-MB-435 34.3 µM | MDA-N 30.1 µM | MOLT-4 18.4 µM | Malme-3M 21.8 µM | NCI-H226 61.1 µM | NCI-H23 31.5 µM | NCI-H460 > 62.5 µM | NCI-H522 17.5 µM | NCI/ADR-RES > 61.5 µM | OVCAR-3 17.5 µM | OVCAR-4 17.2 µM | OVCAR-5 60 µM | OVCAR-8 28.6 µM | PC-3 > 57.3 µM | RPMI-8226 31.8 µM | RXF 393 26.3 µM | SF-268 48.4 µM | SF-295 79.1 µM | SF-539 37.1 µM | SK-MEL-28 17.3 µM | SK-MEL-2 > 52.6 µM | SK-MEL-5 44.6 µM | SK-OV-3 > 100 µM | SN12C > 42.8 µM | SNB-19 > 74.3 µM | SNB-75 > 36.3 µM | SR 5.58 µM | SW-620 25.6 µM | T47D 23.4 µM | TK-10 67 µM | U-251 42.5 µM | UACC-257 60.3 µM | UACC-62 57 µM | UO-31 28.1 µM
